Tested on: HeLa cells
Experiment: Cellular uptake in HeLa cells by confocal laser scanning microscopy
Type: cell-based
Conditions: 30 minutes, 37 °C, serum-containing medium, Fig. 3

cellular uptake (CLSM, FITC fluorescence) (all concentrations (5, 10, 15 and 20 μM)): taken up at all concentrations
mechanism of uptake at the higher concentrations (CLSM) (higher concentrations): strong cytosolic uptake
Substance: FITC-Ahx-Arg-Arg-Arg-Arg-tetrazine-BCN-Arg-Arg-Arg-Arg-NH2 [R4-b-R4]

From publication PMC6340402 (Chemical Science, 2018)
